The supplement of paper PMC11451515

Legend:
Settings in all cases: 48 h
NOMO1 [1] = test: cell viability relative to DMSO control; higher = less cytotoxic
Summary of the method: (§1)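 Viability values are per-plate percentages of DMSO wells, with background from cell-free wells. Library compounds in DMSO were pin-dosed, in an 11-point threefold series from 47 μM to 0.79 nM, onto NOMO1 or SEM (500 cells/well) or P12-Ichikawa (1000 cells/well) leukemia cells in 1536-well plates (5 μl). Those cells had been adapted for at least four passages in each medium, and CellTiter-Glo One luminescence was read after 48 h at 37°C.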

P12-Ichikawa [2] = test: as above
Summary of the method: as §1

SEM cells = test: as above
Summary of the method: as §1

NOMO1 [3] = test: AUC of viability dose-response curve (% viability x log10 dose units); higher = less sensitive
Summary of the method: (§2)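 Library compounds in DMSO were applied for 48 h at 37°C at 11 threefold doses (47 μM to 0.79 nM) to medium-adapted leukemia cells in 1536-well plates holding 500 or 1000 cells/well. Luminescence from CellTiter-Glo One was normalised plate by plate against DMSO and cell-free wells. Area under the curve came from trapezoidal integration of a log-logistic fit, after scaling curves that rose above full viability and discarding those that failed quality control. The fit had four parameters and used log10 doses.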

P12-Ichikawa [4] = test: as above
Summary of the method: as §2

O=c1[nH]c2ccccc2n1C1CCN(Cc2ccc(-c3nc4cc5nc[nH]c5cc4nc3-c3ccccc3)cc2)CC1
cell viability [%]
Settings | NOMO1 [1] | P12-Ichikawa [2] | SEM cells
HPLM + 10% dialyzed FBS, 0.000781 µM | 95.9 | 109 | 97.3
HPLM + 10% dialyzed FBS, 0.00234 µM | 126 | 125 | 103
HPLM + 10% dialyzed FBS, 0.00702 µM | 114 | 116 | 107
HPLM + 10% dialyzed FBS, 0.0211 µM | 126 | 125 | 109
HPLM + 10% dialyzed FBS, 0.0632 µM | 133 | 117 | 105
HPLM + 10% dialyzed FBS, 0.19 µM | 130 | 132 | 103
HPLM + 10% dialyzed FBS, 0.569 µM | 108 | 115 | 106
HPLM + 10% dialyzed FBS, 1.71 µM | 97 | 102 | 64.6
HPLM + 10% dialyzed FBS, 5.12 µM | 90.7 | 105 | 98.3
HPLM + 10% dialyzed FBS, 15.4 µM | 103 | 109 | 88.6
HPLM + 10% dialyzed FBS, 46.1 µM | 95.9 | 115 | 86.5
RPMI 5 mM glucose + 10% FBS, 0.000781 µM | 101 | 111 | 69.5
RPMI 5 mM glucose + 10% FBS, 0.00234 µM | 119 | 102 | 68.9
RPMI 5 mM glucose + 10% FBS, 0.00702 µM | 108 | 110 | 79.1
RPMI 5 mM glucose + 10% FBS, 0.0211 µM | 113 | 111 | 70.3
RPMI 5 mM glucose + 10% FBS, 0.0632 µM | 123 | 115 | 75.1
RPMI 5 mM glucose + 10% FBS, 0.19 µM | 113 | 114 | 77.7
RPMI 5 mM glucose + 10% FBS, 0.569 µM | 115 | 106 | 73.2
RPMI 5 mM glucose + 10% FBS, 1.71 µM | 107 | 85.4 | 37.9
RPMI 5 mM glucose + 10% FBS, 5.12 µM | 111 | 104 | 60.3
RPMI 5 mM glucose + 10% FBS, 15.4 µM | 121 | 109 | 60.2
RPMI 5 mM glucose + 10% FBS, 46.1 µM | 118 | 106 | 46.4
RPMI 5 mM glucose + 10% dialyzed FBS, 0.000781 µM | 98.8 | 121 | 89.6
RPMI 5 mM glucose + 10% dialyzed FBS, 0.00234 µM | 104 | 114 | 101
RPMI 5 mM glucose + 10% dialyzed FBS, 0.00702 µM | 109 | 114 | 109
RPMI 5 mM glucose + 10% dialyzed FBS, 0.0211 µM | 105 | 121 | 106
RPMI 5 mM glucose + 10% dialyzed FBS, 0.0632 µM | 116 | 114 | 103
RPMI 5 mM glucose + 10% dialyzed FBS, 0.19 µM | 116 | 110 | 115
RPMI 5 mM glucose + 10% dialyzed FBS, 0.569 µM | 103 | 105 | 94.6
RPMI 5 mM glucose + 10% dialyzed FBS, 1.71 µM | 107 | 91.1 | 50.5
RPMI 5 mM glucose + 10% dialyzed FBS, 5.12 µM | 97.9 | 103 | 98.9
RPMI 5 mM glucose + 10% dialyzed FBS, 15.4 µM | 115 | 96 | 88.9
RPMI 5 mM glucose + 10% dialyzed FBS, 46.1 µM | 102 | 107 | 70.9

AUC of viability dose-response curve
Settings | HPLM + 10% dialyzed FBS | RPMI 5 mM glucose + 10% FBS | RPMI 5 mM glucose + 10% dialyzed FBS
NOMO1 [3] | 439 | 463 | 474
P12-Ichikawa [4] | 457 | 460 | 443
